The values below come from patent US4607046A, “4-(1-imidazolylmethyl)cinnamic acid hydrochloride monohydrate and pharmaceutical compositions” (Kissei Pharmaceutical Co., Ltd., priority 1981, dated 1986).

Molecules are shown by their SMILES. Counter-ions that a name gives are not always drawn.

The nature of data set [1]: Acute toxicity, oral administration to a rat (LD50). The note with it: in vivo. As for the experimental part:
The LD50 value of this compound is in oral administration to a rat is 6000 mg/kg or more.

Data set [2] in a line: Stability under high or low humidity condition. Conditions: below about 50° C. Type of data set: physicochemical.

By LD50 is commonly meant the dose at which mortality reaches 50%. A low value points to a more toxic substance. For `O=C(O)C=Cc1ccc(Cn2ccnc2)cc1` [4-(1-imidazolylmethyl)cinnamic acid hydrochloride monohydrate], in data set [1], the LD50 was ≥ 6000 mg/kg. For the same molecule, the stability result in data set [2] is given as “stable”.
